Laboratory results taken from EP0643699B1, “6-(2-HYDROXYETHYLAMINOALKYL)-5,11-DIOXO-5,6-DIHYDRO-11H- INDENO[1,2-C]ISOQUINOLINES AND THEIR USE AS ANTINEOPLASTIC AGENTS” (priority 1991, dated 1993).
Read-outs that look alike come from different tables or passages of the source. Marks after values point to notes of the source that are not given here.

How the values were obtained:
Ehrlich tumour = experiment: Antitumour activity against solid form of Ehrlich tumour in mice (tumour weight, survival); assay type: in vivo, mice H; conditions: the fifth day after tumour transplantation; for Tumour weight (T/C, %): weighed on the fourteenth day
Description: (§1) The antineoplastic activity of the compounds of the invention has been investigated testing the compounds of the chemical group "in vivo" against experimental rodent tumors such as the solid form of Ehrlich tumour (STE, originally mammary adenocarcinoma), tumor HK (also transplantable originally mammary adenocarcinoma), Krebs' ascites tumour (Kr2), S37 ascites sarcoma, Nemeth-Keller lymphoma (NK), all maintained in mice H, Gardner lymphosarcoma (LsG, maintained in mice C3H), P388 and/or L1210 leukemia (maintained in DBA2 mice), B16 metastasizing melanocarcinoma (maintained in C57B1/6 mice) and Yoshida ascites reticulosarcoma (Y, maintained in Wistar rats) in experiments according to Jelinek, V. [Neoplasma 12, 469 (1965); ibid 7, 146 (1960)] and in "in vitro" experiments using radioactive precursors of nucleic acids and proteins according to Miko, M. et al. [Cancer Res 39, 4242 (1979); Neoplasma 26, 449 (1979); ibid 16, 161 (1969)] with minor modifications [Mattern, J.: Studies on the Drug Sensitivity of Short Term Cultured Tumour Cell Suspensions. In "Human Tumours in Short Term Culture" (Dendy, P.P. ed.), p.301, Academic Press 1976]. The Cox's proportional-hazards model was used for survival evaluation and optimal dose calculation according to Carter, V.H. et al. [cf Cancer Res. 42, 2963 (1982)].
Sixty female mice H weighing approximately 20 g were divided into three groups: one control group and two experimental groups of 20 animal each. A lethal dose of the 40 Ehrlich tumour homogenate was implanted subcutaneously to all the animals. The animals of test groups were treated using the compounds suspended in water. […] On the fourteenth day after the tumour transplantation, half of the animals in each group were killed by ether anaesthesia, tumours were removed and weighed. The remaining animals were left to monitor the time of death and survival time was followed. […] It was also observed that the treated animals survived longer than untreated control animals.

Yoshida reticulosarcoma = experiment: Survival of rats bearing Yoshida ascites reticulosarcoma; assay type: in vivo, Wistar rats; conditions: T/C
Description: as §1
Seventy infantile Vistar female rats weighing 63.0-64.8 g were divided into seven groups: one control group and six experimental groups of 10 animal each. A lethal dose of the Yoshida reticulosarcoma ascitic fluid was implanted intraperitoneally to all the animals. The animals of test groups were treated using the compound suspended in water. The suspension contained the substance in such a concentration that dose 0.6, 0.4 and/or 0.2 ml of the suspension was equal to dose 200, 100 and/or 50 mg/kg p.o., or 40, 20 and/or 10 mg/kg s.c., respectively. Doses of the drug were administered to the experimental animals once a day, for five consecutive days, starting on the first day after tumour transplantation. In all animals survival was followed. It was observed that the treated animals survived longer than untreated control animals. […] The results of the experiment are summarized in the following table and shown in the graph on the Fig. 1.

L1210 leukemia cells = experiment: Cytotoxicity: incorporation of [14C]amino-acid mixture into trichloroacetic acid-insoluble fraction of cells; assay type: cell-based, DBA2 mice; conditions: Mus musculus; Tumor L1210; Precursor [U-14C]Amino-acid mixture
Description: as §1, with “(1982)]. […]” for “(1982)].”

L1210/MX = experiment: Cytotoxicity: incorporation of [14C]amino-acid mixture, variant resistant to mitoxantron; assay type: cell-based; conditions: Mus musculus; Tumor L1210/MX; Precursor [U-14C]Amino-acid mixture
Description: as §1, with “(1982)]. […]” for “(1982)].”

L1210 = experiment: Optimal dose (ED 95) in L1210 leukemia bearing mice; assay type: in vivo; conditions: L1210 bearing mice DBA2
Description: as §1, with “(1982)]. […]” for “(1982)].”

In the case of `O=C1c2ccccc2-c2c1c1ccccc1c(=O)n2CCNCCO` [I (X=2), 6-[2-(2-hydroxyethyl)aminoethyl]-5,11-dioxo-5,6-dihydro-11H-indeno[1,2-c]isoquinoline], the “Survival time (T/C, %)” value (Ehrlich tumour; 200 mg/kg p.o. once) is reported as 111%, the “Tumour weight (T/C, %)” value (Ehrlich tumour; 200 mg/kg p.o. once) is reported as 79^a) % and the “Survival time (T/C, %)” value (Ehrlich tumour; 400 mg/kg p.o. once) is reported as 152^a) %. The “Tumour weight (T/C, %)” value (Ehrlich tumour; 400 mg/kg p.o. once) was 31^b) %, the “Period of survival (% of control)” value (Yoshida reticulosarcoma; p.o. 50 mg/kg once a day for five consecutive days) was 132% and the “Period of survival (% of control)” value (Yoshida reticulosarcoma; p.o. 100 mg/kg once a day for five consecutive days) was 230^b,^e) %. The “Period of survival (% of control)” value (Yoshida reticulosarcoma; p.o. 200 mg/kg once a day for five consecutive days) was 219^b,^d) %, the “Period of survival (% of control)” value (Yoshida reticulosarcoma; s.c. 10 mg/kg once a day for five consecutive days) was 203 ^b) % and the “Period of survival (% of control)” value (Yoshida reticulosarcoma; s.c. 20 mg/kg once a day for five consecutive days) was 139^a) %. The “Period of survival (% of control)” value (Yoshida reticulosarcoma; s.c. 40 mg/kg once a day for five consecutive days) was 86%, the IC50 (L1210 leukemia cells) was 78 µM and the IC50 (L1210/MX) was 119 µM. The ED95 (L1210; Mus musculus, po, read-out: ED 95) was 225 mg/kg and the “ED95” value (L1210; p.o., dose per body surface) was 675 mg/m^2.
